In patent publication US4289765A, “4-Aminopyridines and medicaments containing the same” (Hoechst Aktiengesellschaft, priority 1979, dated 1981):
Where a name gives a salt, the structure may show the parent alone. Read-outs that look alike come from different tables or passages of the source.

Experiments:
[1] = tested on: experimental bronchial spasms caused by acetyl choline; assay: Bronchospasmolytic action, acetyl choline-induced bronchial spasm (Konzett and Roessler); type: in vivo, guinea pig; settings: Cavia porcellus, urethane-anaesthetized guinea pigs, dose reducing spasm to 50%, read-out: Bronchospasmolytic action (ED50) as compared with acetyl choline
Method: (§1) The test substances were administered in an aqueous solution either by the intravenous (i.v.) or the intraduodenal (i.d.) route. Water-insoluble compounds were applied i.d. in carboxymethyl cellulose suspensions.

[2] = tested on: experimental bronchial spasms caused by histamine; assay: Bronchospasmolytic action, histamine-induced bronchial spasm (Konzett and Roessler); type: in vivo, guinea pig; settings: Cavia porcellus, urethane-anaesthetized guinea pigs, dose reducing spasm to 50%, read-out: Bronchospasmolytic action (ED50) as compared with histamine
Method: as §1

[3] = tested on: experimental bronchial spasms caused by serotonin; assay: Bronchospasmolytic action, serotonin-induced bronchial spasm (Konzett and Roessler); type: in vivo, guinea pig; settings: Cavia porcellus, urethane-anaesthetized guinea pigs, dose reducing spasm to 50%, read-out: Bronchospasmolytic action (ED50) as compared with serotonin
Method: as §1

in vivo = settings: mouse, ip
Method: The LD50 values or the LD50 ranges were determined according to common standards via the mortality occurring over 7 days with NMRI mice following a single intraperitoneal (i.p.) administration.

Compound | ED50 ([1]; iv) [mg/kg] | ED50 ([1]; i.d. (intraduodenal)) [mg/kg] | ED50 ([2]; iv) [mg/kg] | ED50 ([2]; i.d. (intraduodenal)) [mg/kg] | ED50 ([3]; iv) [mg/kg] | ED50 ([3]; i.d. (intraduodenal)) [mg/kg] | LD50 at 168 h (in vivo) [mg/kg]
Cc1cc(N2CCSCC2)c([N+](=O)[O-])c(C)n1 [Example 1, 4-(2,6-Dimethyl-3-nitro-4-pyridyl)-thiomorpholinohydrochloride] | 1.47 | 4.13 | 1.05 | 2.6 | 1.32 | 2.52 | 160
Cc1cc(N2CCOCC2)c([N+](=O)[O-])c(C)n1 [Example 9] | 3 to 10 | – | 1 to 3 | – | – | – | 300 to 1000
Cc1cc(N2CCSCC2)c(C#N)c(C)n1 [Example 13] | 3 | 3 to 10 | 1 to 3 | 1 to 3 | 3 | – | 150 to 300
CCCc1cc(N2CCSCC2)c([N+](=O)[O-])c(CCC)n1 [Example 14] | 1 to 3 | – | 3 | – | 3 to 10 | – | 300 to 600
Cc1cc(N2CCSC(C)C2)c([N+](=O)[O-])c(C)n1 (centres unmarked) [Example 15] | 3 to 10 | – | 3 to 10 | – | – | – | 150 to 300
COC(CNc1cc(C)nc(C)c1[N+](=O)[O-])OC [Example 17] | 3 to 10 | – | > 10 | – | – | – | 400 to 800
Cc1cc(NCCCl)c([N+](=O)[O-])c(C)n1 [Example 18] | 1 to 3 | – | 3 | – | 1 to 3 | – | 150 to 300
Cc1cc(NCc2ccc3c(c2)OCO3)c([N+](=O)[O-])c(C)n1 [Example 22] | 3 to 10 | – | 3 | – | – | – | –
Cc1cc(NCc2ccc(S(N)(=O)=O)cc2)c([N+](=O)[O-])c(C)n1 [Example 23] | 1 to 3 | – | 3 to 10 | – | – | – | 600 to 1200
COc1ccc(CNc2cc(C)nc(C)c2[N+](=O)[O-])cc1 [Example 24] | 1 to 3 | – | 0.3 to 1 | – | 1 to 3 | – | > 600
Cc1cc(NCCF)c([N+](=O)[O-])c(C)n1 [Example 32] | 3 to 10 | – | 1 | – | 1 to 3 | – | 150 to 300
Cn1c(=O)c2[nH]cnc2n(C)c1=O [theophylline-ethylene diamine, reference compound] | 8.3 | 10 to 20 | 5.6 | – | 7.3 | – | –
